These results are taken from patent US9309224B2 (Deciphera Pharmaceuticals, LLC, priority 2013, dated 2016).

The subject of one test is c-FMS. Description: cFOS mRNA production in a c-FMS mouse spleen pharmacodynamic model. Particulars: out to 8 h post 30 mg/kg single oral dose, read-out: inhibition of cFOS mRNA levels. The class given is in vivo. As for the experimental part:
Analysis of cFOS mRNA Production in a c-FMS Mouse Spleen Pharmacodynamic Model To examine the in vivo modulation of FMS activity by compounds of formula I, spleen samples from female DBA/1 mice were collected and analyzed for M-CSF stimulated production of cFOS mRNA. Briefly, six to seven week old female Taconic DBA/1BO J Bom Tac mice were treated with a single oral dose (by gavage) of either vehicle or compound. Plasma and spleen samples are collected from four mice at each timepoint 2, 4, 6, 8, 12, 18, and 24 hours after dosing. Fifteen minutes prior to euthanasia, all mice were injected IV with 1 μg (100 μL fixed volume) of M-CSF. M-CSF, Recombinant Mouse Macrophage Colony Stimulating Factor (36.4 kDa homodimer, ≧98% purity) was obtained from Gibco. All procedures carried out in this experiment were conducted in compliance with all the laws, regulations and guidelines of the National Institutes of Health (NIH). cFOS mRNA levels in spleen extracts were determined using a quantitative reverse transcriptase PCR kit from Life Technologies. Plasma levels of FMS inhibitors were determined by mass spectrometer analysis. The degree of FMS inhibition was correlative to the amount of decrease observed in cFOS mRNA levels in the spleen samples of treated animals compared to vehicle.

Test [1] concerns U251-luc human glioma carcinoma. The experiment in a line: U251 intra-cerebro-ventricular implant in mice with fractionated head radiation. Particulars: 30 mg/kg twice daily, 10 days post irradiation, compared to vehicle treated control. The class given is in vivo, mouse. As to the method: U251 Intra-Cerebro-Ventricular Implant in Mice To evaluate in vivo anti-cancer activity compounds of formula I in combination with fractionated, localized head radiation, an orthotopic U251-luc (Luc) human glioma carcinoma model in female outbred nu/nu mice was employed. Briefly, U251 cells were obtained from the ATCC and altered to be luciferase expressing. They were grown in RPMI 1640 Media supplemented with 10% FBS and 1% PSG. The growth environment was maintained in an incubator with a 5% CO2 atmosphere at 37° C. Female Harlan Nude mice (Hsd:AthymicNude-Fox1nu) 8-9 weeks old were used in this study. Test animals were implanted intracranially with U251-luc (LucmCherry) cells. Briefly, animals were injected subcutaneously with 5 mg/kg carprofen and anesthetized using 2% isoflurane in air. The animals were then secured in a stereotaxic frame (ASIinstruments, Inc.) and a hole drilled 2 mm right lateral, 1 mm anterior to the coronal suture. The cell suspension (stored on wet ice) was mixed thoroughly and drawn up into a 50 μL syringe. The syringe needle was centered over the burr hole and lowered 3 mm into the brain and retracted 1 mm to form a “reservoir” for the deposition of the cell suspension. […] Images were analyzed using Living Image (Xenogen, Alameda, Calif.) software. The BLI signal in the brain was calculated with a fixed area ROI to estimate the tumor burden. […]

The subject of another test is PC-3 M-luc cells. The experiment in a line: PC-3 peritibial implant model of cancer bone metastasis. The format is in vivo, mouse. Particulars: oral gavage twice daily; score 0-4; vehicle-treated animals score 4. From the text: PC-3 Peritibial Implant Model of Cancer Bone Metastasis To evaluate in vivo anti-cancer activity of compounds of formula I, the PC-3 M-luc peritibial injection model of bone invasiveness model was employed. Briefly, PC-3 M-luc cells were obtained from Xenogen Corporation (Caliper Life Sciences) and expanded using MEM media modified with L-Glutamine (Cell Gro® #10-045-CV) supplemented with 10% fetal bovine serum, 1% penicillin-streptomycin-glutamine, 1% non-essential amino acids, and 1% MEM vitamins in 5% CO2 atmosphere at 37° C. Six to 7 week old male nude mice (Crl:NU-Foxn1nu) were obtained from Charles River Laboratories. Test mice were implanted peritibially on Day 0 with 1×10^6 cells/mouse (0.1 mL) using an insulin syringe with a fixed 28-gauge needle. The needle was inserted at the ankle between the tibia and fibula until the bevel of the needle reaches approximately half way between the knee and ankle Treatments began on Day 0. Animals were dosed by oral gavage twice daily for the study duration. All procedures carried out in this experiment were conducted in compliance with all the laws, regulations and guidelines of the National Institutes of Health (NIH). […] Lesions in the right hind limb were scored with values of 0, 1, 2, 3, or 4 based on a qualitative assessment of lesion size as defined by: 0: Normal Bone 1: Minimal lesions. […]

The target of test [2] is T1, phospho-FMS in THP-1 cells (Homo sapiens, UniProt P07333).
T1 construct: endogenous in cells; host or cells: THP-1 (ATCC TIB-202)
T1 sequence (P07333 20-972): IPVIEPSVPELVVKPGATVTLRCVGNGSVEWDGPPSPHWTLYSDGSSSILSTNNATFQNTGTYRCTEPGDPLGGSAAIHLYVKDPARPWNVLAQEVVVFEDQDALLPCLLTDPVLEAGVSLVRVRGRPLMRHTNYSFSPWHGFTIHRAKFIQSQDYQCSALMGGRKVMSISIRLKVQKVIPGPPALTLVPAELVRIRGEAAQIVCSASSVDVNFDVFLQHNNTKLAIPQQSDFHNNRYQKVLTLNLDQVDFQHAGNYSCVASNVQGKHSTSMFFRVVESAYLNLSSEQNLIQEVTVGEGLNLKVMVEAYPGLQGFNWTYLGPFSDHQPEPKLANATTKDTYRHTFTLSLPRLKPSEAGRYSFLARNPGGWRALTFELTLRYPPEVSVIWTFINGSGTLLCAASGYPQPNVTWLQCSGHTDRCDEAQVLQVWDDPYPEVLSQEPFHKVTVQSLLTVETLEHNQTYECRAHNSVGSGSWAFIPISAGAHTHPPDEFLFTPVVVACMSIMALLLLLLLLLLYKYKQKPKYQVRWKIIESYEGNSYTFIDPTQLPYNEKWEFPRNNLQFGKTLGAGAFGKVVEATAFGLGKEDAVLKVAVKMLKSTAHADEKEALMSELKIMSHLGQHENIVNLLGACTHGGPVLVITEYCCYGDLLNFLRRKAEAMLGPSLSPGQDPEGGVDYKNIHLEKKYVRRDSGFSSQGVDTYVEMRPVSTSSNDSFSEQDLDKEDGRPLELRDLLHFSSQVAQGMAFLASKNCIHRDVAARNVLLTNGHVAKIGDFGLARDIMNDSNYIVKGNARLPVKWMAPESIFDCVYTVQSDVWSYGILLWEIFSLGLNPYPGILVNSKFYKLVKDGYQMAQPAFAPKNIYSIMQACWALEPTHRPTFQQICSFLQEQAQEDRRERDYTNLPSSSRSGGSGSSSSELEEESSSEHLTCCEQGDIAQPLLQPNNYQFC
The experiment in a line: Phospho-FMS ELISA assay in THP-1 cells. The class given is cell-based. To be noted: 4 hours compound, M-CSF stimulated; read-out: pFMS inhibition in THP-1 cells.
Experimental: In a separate 96 well black clear bottom plate, one hundred and fifty thousand THP-1 cells were added per well in 100 μL in assay medium. Fifty microliters of diluted compound was then added to the cells. […] Lysates were prepared and used to perform the phospho-FMS ELISA as described by the manufacturer (catalog #DYC3268, R & D Systems, Minneapolis, Minn.). GraphPad Prism was used to calculate IC50 values obtained from data generated from the ELISA assay.

For the molecule `CN1CCN(C(=O)Nc2cc(Oc3ccc(NC(=O)NC(=O)C(C)(C)C)nc3)ccn2)CC1` [Example 45, 4-methyl-N-(4-((6-(3-pivaloylureido)pyridin-3-yl)oxy)pyridin-2-yl)piperazine-1-carboxamide], the inhibition in vivo at 30 mg/kg in the test with c-FMS was no less than 50%. In test [1], the “reduction in tumor re-growth” value is listed as 80%. Moreover, the lesion score in the test on PC-3 M-luc cells was 3. In addition, the IC50 in test [2] is less than 10 nM.
